Laboratory results reported in ChEMBL document CHEMBL3085700 (J Med Chem, 2013).
Calls of active or inactive are those of the source. The calls are words filed in the database; no cut-off is given here.

How the values were obtained:
[1] = biological target: T1, Fatty-acid amide hydrolase 1 (Homo sapiens, UniProt O00519); experiment: Inhibition of human recombinant FAAH overexpressed in African green monkey COS7 cells using [3H]-anandamide as substrate preincubated for 10 mins before substrate addition measured after 10 mins by liquid scintillation counting analysis; assay type: cell-based, COS-7
T1 sequence (O00519 whole entry): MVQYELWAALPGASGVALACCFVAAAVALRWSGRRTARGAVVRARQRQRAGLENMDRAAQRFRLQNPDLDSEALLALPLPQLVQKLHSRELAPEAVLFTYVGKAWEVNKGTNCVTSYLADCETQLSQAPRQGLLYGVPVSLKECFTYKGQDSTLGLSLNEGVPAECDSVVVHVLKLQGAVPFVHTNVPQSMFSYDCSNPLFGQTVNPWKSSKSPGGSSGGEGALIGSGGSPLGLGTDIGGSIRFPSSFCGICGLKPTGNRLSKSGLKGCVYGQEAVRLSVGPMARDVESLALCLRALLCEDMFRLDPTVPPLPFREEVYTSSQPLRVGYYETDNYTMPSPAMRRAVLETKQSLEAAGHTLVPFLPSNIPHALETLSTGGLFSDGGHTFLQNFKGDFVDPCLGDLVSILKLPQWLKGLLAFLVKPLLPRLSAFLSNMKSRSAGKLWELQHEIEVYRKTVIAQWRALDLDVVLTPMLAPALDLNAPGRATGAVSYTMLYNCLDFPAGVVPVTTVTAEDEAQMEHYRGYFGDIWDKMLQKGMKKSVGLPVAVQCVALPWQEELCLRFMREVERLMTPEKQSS

[2] = biological target: T2, Fatty-acid amide hydrolase 1 (Homo sapiens) (UniProt O00519); experiment: Reversible inhibition of human recombinant FAAH overexpressed in African green monkey COS7 cells using […] as substrate assessed as recovery of enzyme activity at 20 x IC50 preincubated for 60 mins followed by 500 fold dilution measured after 10 mins by HPLC analysis; assay type: cell-based; details: COS-7
T2 sequence (whole entry): T1 sequence (O00519 whole entry)

[3] = biological target: T2, Fatty-acid amide hydrolase 1 (Homo sapiens); experiment: Inhibition of human recombinant FAAH overexpressed in African green monkey COS7 cells using [3H]-anandamide as substrate at 300 uM preincubated for 10 to 60 mins by liquid scintillation counting analysis; assay type: cell-based; details: COS-7
[4] = biological target: T3, Fatty-acid amide hydrolase 1 (Rattus norvegicus) (UniProt P97612); experiment: Inhibition of FAAH in rat RBL2H3 cells assessed as blockade of [3H]-anandamide uptake at 0.1 uM incubated for 15 mins prior to [3H]-anandamide addition measured after 10 mins by scintillation spectroscopic analysis; assay type: cell-based; details: RBL-2H3
T3 sequence (whole entry): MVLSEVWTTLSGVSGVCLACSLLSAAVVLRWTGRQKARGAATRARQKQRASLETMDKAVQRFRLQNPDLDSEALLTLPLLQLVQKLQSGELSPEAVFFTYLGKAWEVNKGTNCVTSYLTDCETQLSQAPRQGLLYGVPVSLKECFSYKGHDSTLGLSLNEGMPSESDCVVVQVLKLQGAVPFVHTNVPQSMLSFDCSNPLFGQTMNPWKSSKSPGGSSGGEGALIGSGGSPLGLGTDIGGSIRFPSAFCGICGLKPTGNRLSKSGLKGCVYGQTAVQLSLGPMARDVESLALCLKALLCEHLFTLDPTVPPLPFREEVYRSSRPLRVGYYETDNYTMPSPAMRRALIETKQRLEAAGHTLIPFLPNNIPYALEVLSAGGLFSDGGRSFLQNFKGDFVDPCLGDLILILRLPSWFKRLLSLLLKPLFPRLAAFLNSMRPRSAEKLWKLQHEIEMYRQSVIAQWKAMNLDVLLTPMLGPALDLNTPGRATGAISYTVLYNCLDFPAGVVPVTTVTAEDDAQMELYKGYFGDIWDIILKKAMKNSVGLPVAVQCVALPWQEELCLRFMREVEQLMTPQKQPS

[5] = biological target: T4, Fatty-acid amide hydrolase 1 (Mus musculus) (UniProt O08914); details: Brain, Membrane, 10 uM
T4 sequence (whole entry): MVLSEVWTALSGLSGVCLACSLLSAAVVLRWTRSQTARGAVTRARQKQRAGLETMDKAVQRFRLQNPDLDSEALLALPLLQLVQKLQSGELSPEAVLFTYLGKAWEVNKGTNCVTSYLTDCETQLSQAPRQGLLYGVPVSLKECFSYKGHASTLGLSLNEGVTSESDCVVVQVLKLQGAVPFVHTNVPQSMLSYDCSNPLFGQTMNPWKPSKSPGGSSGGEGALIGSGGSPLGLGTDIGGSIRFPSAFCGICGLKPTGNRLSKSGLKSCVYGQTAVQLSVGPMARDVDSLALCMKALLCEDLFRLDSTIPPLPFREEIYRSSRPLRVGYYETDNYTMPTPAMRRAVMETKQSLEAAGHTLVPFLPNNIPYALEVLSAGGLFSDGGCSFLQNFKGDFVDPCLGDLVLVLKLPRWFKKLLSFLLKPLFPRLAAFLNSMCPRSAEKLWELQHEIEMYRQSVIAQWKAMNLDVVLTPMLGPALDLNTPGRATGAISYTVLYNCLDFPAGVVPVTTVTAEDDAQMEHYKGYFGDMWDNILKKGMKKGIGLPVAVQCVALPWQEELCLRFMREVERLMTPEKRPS
Description: Inhibition of TAMRA-FP-labeled FAAH in mouse brain membrane at 10 uM after 1 hr by fluorescent gel scanning assay

O=C(Nc1ccccc1)N1CCC(Cc2ccc3ccccc3n2)CC1
IC50 ([1]; read-out: IC50): 320 nM | IC50 ([1]; read-out: pIC50 (converted)): 324 nM | inhibition [2]: inactive | inhibition [3]: Active

O=C(N1CCC(C(c2ccc3c(c2)OCO3)c2ccc3c(c2)OCO3)CC1)n1cncn1
inhibition [4]: Active

O=C(Oc1ccc([N+](=O)[O-])cc1)N1CCN(Cc2cccc(Oc3ccccc3)c2)CC1
inhibition [5]: Active
